Data taken from patent publication US20260345641A1, “COMPOSITIONS AND USES THEREOF” (Algorae Pharmaceuticals Ltd, priority 2023, published 2026).

Tested on: SH-S5Y5 neuroblastoma cells
Assay: Cell viability (MTT) in response to Aβ, in vitro model of Alzheimer's disease
Assay type: cell-based
Conditions: 20 μM Aβ, 24 h
Text: The SH-S5Y5 neuroblastoma cell line was used for pre-clinical analysis. The SH-S5Y5 cell line is commonly used as a model for neurodegenerative disorders as the cells can be converted to various types of functional neurons by the addition of specific compounds (see, e.g., Xicoy et al., 2017, Molecular Neurodegeneration, 12: 10). In addition, the SH-S5Y5 cell line has been used widely in experimental neurological studies, including analysis of neuronal differentiation, metabolism, and function related to neurodegenerative processes, neurotoxicity and neuroprotection (see, e.g., Datki et al., 2003, Brain Research Bulletin, 62(3): 22-229; and Xie et al., 2010, Chinese Medical Journal, 123(8): 1086-1092).
100 μL MTT reagent was added to each well (final concentration 0.5 mg/mL). Cells were then incubated at 37 °C, 5% CO2 for 4 hours. Solubilization buffer (100 μL) was then added to each well and further incubated at 37 °C, 5% CO2 for 24 hours. Absorbance was then measured by spectrophotometer at 550-600 nm and background corrected at 650 nm.
Amyloid-β (Aβ; 1 mg) was dissolved in 2 mL of 1,1,1,3,3,3-hexafluoro-2-propanol (HFIP). An additional 200 μL of HFIP was then added due to volatility. The Aβ was sealed with parafilm and vortexed for 30 seconds before aliquoting at 100 μL per 1.5 mL tube. HFIP was then evaporated in fume hood for 8 hours. Tubes were then sealed with lid and parafilm and stored at −80 °C. Prior to use, Aβ was reconstituted in DMSO to a final volume of 10% v/v for 10-15 min at RT and vortexed every 3-5 min. F-12 medium was then added to a final volume of 90% v/v. Aβ was then stored at 4 °C for 24 hours and vortexed before use.
Cells were seeded in 96-well microplates and incubated 37 °C, 5% CO2 for 24 hours.

Structure (SMILES): COc1cc2c(cc1OC)C(=O)C(CC1CCN(Cc3ccccc3)CC1)C2 (centres unmarked) [Donepezil]
- Cell viability as measured by MTT (Donepezil 2.5 μM): −0.036
- Cell viability as measured by MTT (Donepezil 5 μM): −0.021
- Cell viability as measured by MTT (Donepezil 10 μM): 0.021
- Cell viability as measured by MTT (Donepezil 20 μM): −0.011
- Cell viability as measured by MTT (Donepezil 30 μM): −0.013
